In ChEMBL document CHEMBL3877294, “Discovery of Ruzasvir (MK-8408): A Potent, Pan-Genotype HCV NS5A Inhibitor with Optimized Activity against Common Resistance-Associated Polymorphisms” (J Med Chem, 2017):

Tests used:
Assay type in all cases: cell-based
[1] = test system: Huh-7; assay: Inhibition of HCV genotype-4a NS5A infected in human HuH7 cells by luciferase reporter gene assay; conditions: Hepatitis C virus subtype 4a
[2] = test system: T1, Nonstructural protein 5A (Hepatitis C virus), Q5L478 [Y93H]; assay: Inhibition of HCV genotype-1a NS5A Y93H mutant infected in human HuH7 cells by luciferase reporter gene assay; conditions: Hepatitis C virus subtype 1a; Huh-7
T1 sequence (whole entry): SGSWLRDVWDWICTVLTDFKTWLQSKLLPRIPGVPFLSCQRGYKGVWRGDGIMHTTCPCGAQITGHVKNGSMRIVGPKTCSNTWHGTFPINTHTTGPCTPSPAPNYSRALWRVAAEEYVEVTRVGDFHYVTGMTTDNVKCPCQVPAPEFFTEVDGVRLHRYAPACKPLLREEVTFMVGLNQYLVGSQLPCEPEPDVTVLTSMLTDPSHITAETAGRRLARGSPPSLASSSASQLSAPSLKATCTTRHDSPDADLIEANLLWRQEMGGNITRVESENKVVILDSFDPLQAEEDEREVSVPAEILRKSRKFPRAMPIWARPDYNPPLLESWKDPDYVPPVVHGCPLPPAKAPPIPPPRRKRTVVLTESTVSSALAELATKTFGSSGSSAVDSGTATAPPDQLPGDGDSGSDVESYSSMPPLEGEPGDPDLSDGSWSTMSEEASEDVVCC

[3] = test system: Huh-7; assay: Inhibition of HCV genotype-1a NS5A infected in human HuH7 cells by luciferase reporter gene assay; conditions: Hepatitis C virus subtype 1a
[4] = test system: Huh-7; assay: Inhibition of HCV genotype-2b NS5A harboring methionine at position 31 infected in human HuH7 cells by luciferase reporter gene assay; conditions: Hepatitis C virus subtype 2b
[5] = test system: Nonstructural protein 5A (Hepatitis C virus), Q5L478 [UNDEFINED MUTATION]; assay: Inhibition of HCV genotype-1a NS5A L31V mutant infected in human HuH7 cells by luciferase reporter gene assay; conditions: Hepatitis C virus subtype 1a; Huh-7
[6] = test system: Huh-7; assay: Inhibition of HCV genotype-3a NS5A infected in human HuH7 cells by luciferase reporter gene assay; conditions: Hepatitis C virus subtype 3a

| SMILES | EC90 [1] | EC90 [2] | EC90 [3] | EC90 [4] | EC90 [5] | EC90 [6] |
| --- | --- | --- | --- | --- | --- | --- |
| COC(=O)N[C@H](C(=O)N1CCC[C@H]1c1ncc(-c2cc(F)c3c(c2)OC(c2ccc(C4CC4(F)F)s2)n2c-3cc3cc(-c4cnc([C@@H]5CCCN5C(=O)[C@@H](NC(=O)OC)C(C)C)[nH]4)ccc32)[nH]1)C(C)C (some centres not stated) | 0.003 nM | 0.084 nM | 0.002 nM | 0.43 nM | 0.02 nM | 0.007 nM |
| COC(=O)N[C@H](C(=O)N1CCC[C@H]1c1ncc(-c2cc(F)c3c(c2)OC(c2cc4c(s2)CCC4)n2c-3cc3cc(-c4cnc([C@@H]5CCCN5C(=O)[C@@H](NC(=O)OC)C(C)C)[nH]4)ccc32)[nH]1)C(C)C (some centres not stated) | 0.005 nM | 0.26 nM | 0.003 nM | 0.24 nM | 0.003 nM | 0.007 nM |
| COC(=O)N[C@H](C(=O)N1CCC[C@H]1c1ncc(-c2cc(F)c3c(c2)OC(c2nc(C4CC4)cs2)n2c-3cc3cc(-c4cnc([C@@H]5CCCN5C(=O)[C@@H](NC(=O)OC)C(C)C)[nH]4)ccc32)[nH]1)C(C)C (some centres not stated) | – | 2.6 nM | 0.002 nM | 4.6 nM | – | 0.073 nM |
| COC(=O)N[C@H](C(=O)N1CCC[C@H]1c1ncc(-c2cc(F)c3c(c2)OC(c2cc(C4CC4)cs2)n2c-3cc3cc(-c4cnc([C@@H]5CCCN5C(=O)[C@@H](NC(=O)OC)C(C)C)[nH]4)ccc32)[nH]1)C(C)C (some centres not stated) | – | 1.74 nM | < 0.002 nM | 1.6 nM | 0.028 nM | 0.008 nM |
| COC(=O)N[C@H](C(=O)N1CCC[C@H]1c1ncc(-c2cc(F)c3c(c2)OC(c2cnc(C(C)C)s2)n2c-3cc3cc(-c4cnc([C@@H]5C[C@H]6C[C@H]6N5C(=O)[C@@H](NC(=O)OC)C(C)C)[nH]4)ccc32)[nH]1)C(C)C (some centres not stated) | 0.006 nM | 0.028 nM | 0.003 nM | 0.23 nM | 0.008 nM | 0.006 nM |
| COC(=O)N[C@H](C(=O)N1CCC[C@H]1c1ncc(-c2cc(F)c3c(c2)OC(c2ccc(C(=O)N(C)C)s2)n2c-3cc3cc(-c4cnc([C@@H]5CCCN5C(=O)[C@@H](NC(=O)OC)C(C)C)[nH]4)ccc32)[nH]1)C(C)C (some centres not stated) | 0.024 nM | 0.47 nM | 0.014 nM | 0.45 nM | 0.035 nM | 0.12 nM |
| COCc1ncc(C2Oc3cc(-c4cnc([C@@H]5CCCN5C(=O)[C@@H](NC(=O)OC)C(C)C)[nH]4)cc(F)c3-c3cc4cc(-c5cnc([C@@H]6CCCN6C(=O)[C@@H](NC(=O)OC)C(C)C)[nH]5)ccc4n32)s1 (some centres not stated) | 0.003 nM | 0.04 nM | 0.002 nM | 0.12 nM | 0.017 nM | 0.007 nM |
| CCCc1ccc(C2Oc3cc(-c4cnc([C@@H]5CCCN5C(=O)[C@@H](NC(=O)OC)C(C)C)[nH]4)cc(F)c3-c3cc4cc(-c5cnc([C@@H]6CCCN6C(=O)[C@@H](NC(=O)OC)C(C)C)[nH]5)ccc4n32)s1 (some centres not stated) | 0.005 nM | 0.069 nM | 0.005 nM | 0.44 nM | 0.013 nM | 0.009 nM |
| COC(=O)N[C@H](C(=O)N1CCC[C@H]1c1ncc(-c2cc(F)c3c(c2)OC(c2csc(C4CC4)c2)n2c-3cc3cc(-c4cnc([C@@H]5CCCN5C(=O)[C@@H](NC(=O)OC)C(C)C)[nH]4)ccc32)[nH]1)C(C)C (some centres not stated) | 0.003 nM | 0.26 nM | 0.002 nM | 0.88 nM | 0.06 nM | 0.007 nM |
| CCc1nnc(C2Oc3cc(-c4cnc([C@@H]5CCCN5C(=O)[C@@H](NC(=O)OC)C(C)C)[nH]4)cc(F)c3-c3cc4cc(-c5cnc([C@@H]6CCCN6C(=O)[C@@H](NC(=O)OC)C(C)C)[nH]5)ccc4n32)s1 (some centres not stated) | – | 7.4 nM | 0.016 nM | > 1.7 nM | – | 0.18 nM |
| CCCc1ncc(C2Oc3cc(-c4cnc([C@@H]5CCCN5C(=O)[C@@H](NC(=O)OC)C(C)C)[nH]4)cc(F)c3-c3cc4cc(-c5cnc([C@@H]6C[C@H]7C[C@H]7N6C(=O)[C@@H](NC(=O)OC)C(C)C)[nH]5)ccc4n32)s1 (some centres not stated) | 0.012 nM | 0.021 nM | 0.005 nM | 0.14 nM | 0.013 nM | 0.009 nM |
| COC(=O)N[C@H](C(=O)N1CCC[C@H]1c1ncc(-c2cc(F)c3c(c2)OC(c2sccc2C2CC2)n2c-3cc3cc(-c4cnc([C@@H]5CCCN5C(=O)[C@@H](NC(=O)OC)C(C)C)[nH]4)ccc32)[nH]1)C(C)C (some centres not stated) | 0.32 nM | 70 nM | 0.012 nM | > 33 nM | 1.74 nM | 4.7 nM |
| COC(=O)N[C@H](C(=O)N1CCC[C@H]1c1ncc(-c2cc(F)c3c(c2)OC(c2ccsc2)n2c-3cc3cc(-c4cnc([C@@H]5CCCN5C(=O)[C@@H](NC(=O)OC)C(C)C)[nH]4)ccc32)[nH]1)C(C)C (some centres not stated) | 0.01 nM | 0.59 nM | 0.002 nM | 3.7 nM | 0.13 nM | 0.013 nM |
| COC(=O)N[C@H](C(=O)N1CCC[C@H]1c1ncc(-c2cc(F)c3c(c2)OC(c2cnc(CC(F)(F)F)s2)n2c-3cc3cc(-c4cnc([C@@H]5CCCN5C(=O)[C@@H](NC(=O)OC)C(C)C)[nH]4)ccc32)[nH]1)C(C)C (some centres not stated) | 0.013 nM | 0.18 nM | 0.005 nM | 0.22 nM | 0.05 nM | 0.015 nM |
| COC(=O)N[C@H](C(=O)N1CCC[C@H]1c1ncc(-c2cc(F)c3c(c2)OC(c2ccc(C(F)(F)F)s2)n2c-3cc3cc(-c4cnc([C@@H]5CCCN5C(=O)[C@@H](NC(=O)OC)C(C)C)[nH]4)ccc32)[nH]1)C(C)C (some centres not stated) | 0.003 nM | 0.31 nM | 0.003 nM | 0.31 nM | 0.097 nM | 0.007 nM |
| COC(=O)N[C@H](C(=O)N1CCC[C@H]1c1ncc(-c2ccc3c(c2)cc2n3C(c3cc4ccccc4s3)Oc3cc(-c4cnc([C@@H]5C[C@@H](F)CN5C(=O)[C@@H](NC(=O)OC)C(C)C)[nH]4)ccc3-2)[nH]1)C(C)C (some centres not stated) | – | 1.1 nM | 0.01 nM | 3.4 nM | 0.53 nM | 0.19 nM |
| COC(=O)N[C@H](C(=O)N1CCC[C@H]1c1ncc(-c2cc(F)c3c(c2)OC(c2ccc(CC4CC4)s2)n2c-3cc3cc(-c4cnc([C@@H]5CCCN5C(=O)[C@@H](NC(=O)OC)C(C)C)[nH]4)ccc32)[nH]1)C(C)C (some centres not stated) | 0.003 nM | 0.18 nM | 0.003 nM | – | 0.011 nM | 0.004 nM |
| COC(=O)N[C@H](C(=O)N1CCC[C@H]1c1ncc(-c2cc(F)c3c(c2)OC(c2cncs2)n2c-3cc3cc(-c4cnc([C@@H]5CCCN5C(=O)[C@@H](NC(=O)OC)C(C)C)[nH]4)ccc32)[nH]1)C(C)C (some centres not stated) | – | 1 nM | 0.006 nM | 2.47 nM | – | 0.079 nM |
| COC(=O)N[C@H](C(=O)N1CCC[C@H]1c1ncc(-c2cc(F)c3c(c2)OC(c2cnco2)n2c-3cc3cc(-c4cnc([C@@H]5CCCN5C(=O)[C@@H](NC(=O)OC)C(C)C)[nH]4)ccc32)[nH]1)C(C)C (some centres not stated) | – | 8.5 nM | 0.06 nM | 14.1 nM | – | 0.25 nM |
| COC(=O)N[C@H](C(=O)N1CCC[C@H]1c1ncc(-c2cc(F)c3c(c2)OC(c2ncc(C4CC4)s2)n2c-3cc3cc(-c4cnc([C@@H]5CCCN5C(=O)[C@@H](NC(=O)OC)C(C)C)[nH]4)ccc32)[nH]1)C(C)C (some centres not stated) | – | 1 nM | 0.005 nM | 1.63 nM | 0.017 nM | – |
| COC(=O)N[C@H](C(=O)N1CCC[C@H]1c1ncc(-c2cc(F)c3c(c2)OC(c2sc(C4CC4)cc2F)n2c-3cc3cc(-c4cnc([C@@H]5CCCN5C(=O)[C@@H](NC(=O)OC)C(C)C)[nH]4)ccc32)[nH]1)C(C)C (some centres not stated) | 0.003 nM | 0.74 nM | 0.002 nM | 0.68 nM | – | 0.008 nM |
